Literature values as cited in US12121591B2, “Sulfur-containing ionizable lipids for the delivery of nucleic acids and other therapeutic agents” (NanoVation Therapeutics Inc., priority 2022, dated 2024).

Settings: delivery of siRNA, relative to KC2

## CCCCC/C=C\C/C=C\CCCCCCCCC(CCCCCCCC/C=C\C/C=C\CCCCC)OC(=O)CCCN(C)C [MC3]
  siRNA required, times less than KC2: about 3 times
